Test results as given in patent publication US20210310040A1, “SUSCEPTIBILITY AND RESISTANCE OF MICROORGANISMS” (priority 2017, published 2021).
Values after ≈ are worked out from the molar mass of the structure shown.

Assays:
[1] = tested on: ATCC 25922 (Pan-S); assay: Susceptibility by perturbation of VOCs, single indicator response after addition of antibiotic; assay type: cell-based, E. coli
From the text: (§1) However, it has been discovered that detection of changes in VOC output of microorganism—in addition to changes in the number of microorganisms—can be detected by the sensor 808 after application of antibiotics. The change in the sensor 808 response can also be correlated to susceptibility of the microorganism to antibiotics. For instance, it has been discovered that after application of antibiotics, certain sensors decrease or show less response at certain concentrations. This change in VOC output can be correlated to the resistance or susceptibility of the microorganisms in the sample to the antibiotic or other substance introduced. In other examples, a change in compound output that remain in solution (not limited to VOCs) may be correlated to a susceptibility of the microorganisms.
For instance, FIG. 48 illustrates an example of the response of the red spectrum of a single indicator (e.g. an indicator containing ZnTPP and Bromophenol Blue) on the sensor 808 in the presence of a sample. As shown, the antibiotic is added at 0.5 hours—in the example of the susceptible microorganism ATCC 25922 (Pan-S), the indicator red component drops off dramatically. The results can be noticed almost a half an hour to an hour after adding the antibiotic—far faster than to notice a general decline in emission of VOCs due to cell death or lack of growth of microorganisms. […]

[2] = tested on: E. coli AR 84 (ESBL); assay: as above; assay type: cell-based; conditions: at all concentrations of Ampicillin
From the text: as §1
In the resistant strain illustrated in FIG. 48, AR 84 (ESBL), the antibiotic is added at the same time, but the red component of the sensor response continues to increase over time. […] Accordingly, in this embodiment, the sensor 808 response of a single indicator may be monitored. Changes in the slope of the indicator response over time, or decreases in the indicator may be monitored to determine when there is potentially a susceptible organism. […]

[3] = tested on: K. pneumoniae IS-133; conditions: cited from earlier work
[4] = tested on: K. pneumoniae IS-020; assay: Colorimetric sensor array susceptibility test on solid growth media; assay type: cell-based, Klebsiella pneumoniae
From the text: (§2) To detect and identify a microorganism by species and/or strain, a sample including the microorganism is placed in a container including culture medium and a colorimetric array, and the temporal response of the sensors to the metabolic products of the microorganism is monitored. Susceptibility can be assessed by inoculating a growth medium including a substance (e.g., an antibiotic) with a microorganism and monitoring the response of the sensors while also monitoring the response of a control (e.g., no antibiotic).
(§3) FIG. 8 depicts an embodiment of a container 800 configured for use to assess a susceptibility or resistance of microorganisms. Container 800 includes base 802 and lid 804, with wells 806 positioned in base 802 opposite colorimetric sensor arrays 808 on lid 804. Microorganisms may be placed in contact with growth medium (e.g., a solid or liquid growth medium) in wells 806. A substance (e.g., a drug such as an antibiotic) may be added to the growth medium. In one example, rows and columns of wells 802 in container 800 may be used for different microorganisms, different substances (e.g., drugs including antibiotics that may potentially kill the microorganisms), and/or different concentrations of substances. After samples are loaded on wells 802, a lid 804 may be positioned over base 802, such that each colorimetric sensor array 808 is proximate a well 806 and in gaseous (or liquid) communication. In other embodiments, various other configurations could be utilized to bring the gas and volatile organic compounds emitted from the sample into gaseous proximity of the sensor array 808 at sufficient gaseous concentrations. The response of the sensor arrays 808 recorded by various detectors may then be assessed in order to determine a susceptibility or resistance of the various antibiotics or substances cultured with the sample. Susceptibility may be assessed via temporal response of the sensors in colorimetric sensor arrays 808 as described herein. Container 800 can be positioned in an apparatus (e.g., apparatus 700) for automated assessment of susceptibility and/or resistance.
(§4) FIGS. 9A-B show susceptibility of K. pneumoniae strains obtained in 6 hours in Muller-Hinton agar (x axis indicates time in hours). Susceptibility is indicated by a lack of metabolic products compared to controls (no antibiotic). […] FIGS. 10A-C show susceptibility of S. aureus strains obtained in 6 hours in Muller-Hinton agar.
(§5) In another susceptibility test, three strains of K. pneumoniae were inoculated onto the solid growth media with no antibiotic (control), piperacillin/tazobactam (PIP/TAZO) at concentrations of 16 ug/ml and 4 ug/ml, Cefepime at 8 ug/ml and Meropenem at 1 ug/ml. […] K. pneumoniae IS-020 was susceptible to all 3 antibiotics in agreement with known susceptibility information that this strain is susceptible to PIP/Tazo at <4 ug/ml, Cefepime <1 ug/ml and Meropenem at <0.25 ug/ml). K. pneumoniae IS-133 is known to be resistant at concentrations of PIP/Tazo below 128 ug/ml, Cefepime below 64 ug/ml and Meropenem below 16 ug/ml.

[5] = tested on: K. pneumoniae IS-007; assay: as above; assay type: cell-based, Klebsiella pneumoniae
From the text: as §2, §3, §4, §5

[6] = tested on: K. pneumoniae IS-007; conditions: cited from earlier work
[7] = tested on: K. pneumoniae IS-020; conditions: cited from earlier work
[8] = tested on: S. aureus 29213 (MSSA); assay: Susceptibility by perturbation of VOCs, single indicator response with antibiotic; assay type: cell-based; conditions: Staphylococcus aureus, observed in about 2.5 hours, FIG. 52
From the text: as §1
FIG. 52 illustrates two graphs showing the MIC observed for two different antibiotics to S. aureus 29213 (MSSA). The graph on the left portion of FIG. 52 illustrates a MIC of 1 μg/ml to Cefoxitin and the graph on the right illustrations a MIC of 0.5 μg/ml of Vancomycin.

[9] = tested on: E. coli (AR85); assay: as above; assay type: cell-based; conditions: Escherichia coli; observed after 2.5 hours, FIG. 50; read-out: minimum inhibitory concentration (MIC)
From the text: as §1
FIG. 50 illustrates a graph showing the sensor response of a single sensor 808, dye or indicator to a sample of E. coli incubated in the presence of different concentrations of Ertapenem—a Carbapenem family of antibiotic. As illustrated, the single indicator can not only determine whether this strain of E. coli (AR85) is resistant to Ertapenem, but also the minimum inhibitory concentration (“MIC”). As illustrated, the minimum inhibitory concentration of 2 μg/ml is observed only after 2.5 hours. […]

[10] = tested on: S. aureus IS-123; assay: Colorimetric sensor array susceptibility test on solid growth media; assay type: cell-based, Staphylococcus aureus
From the text: as §2, §3, §4
(§6) In another susceptibility test, three strains of S. aureus were inoculated onto the solid growth media. […] S. aureus IS-124 was susceptible to both antibiotics in agreement with known susceptibility information that this strain is susceptible to Oxacillin and Vancomycin.

[11] = tested on: S. aureus IS-120; assay: as above; assay type: cell-based, Staphylococcus aureus
From the text: as §2, §3, §4, §6

[12] = tested on: S. aureus IS-124; assay: as above; assay type: cell-based, Staphylococcus aureus
From the text: as §2, §3, §4, §6

[13] = tested on: S. aureus IS-124; conditions: cited from earlier work
[14] = tested on: S. aureus IS-123; conditions: cited from earlier work
[15] = tested on: S. aureus IS-120; conditions: cited from earlier work
[16] = PIP/TAZO at 16 ug/ml and 4 ug/ml

In the case of `CC1(C)S[C@@H]2[C@H](NC(=O)[C@H](N)c3ccccc3)C(=O)N2[C@H]1C(=O)O` [Ampicillin], the “sensor response of single indicator after addition of antibiotic (FIG. 49)” value ([1]; Ampicillin at 0.5 mg/ml and 1.0 mg/ml) was “same response”, the MIC ([1]; Escherichia coli, ATCC25922, single sensor or indicator, FIG. 53) was 1 to 8 µg/mL (≈ 2.86 to 22.9 µM) and the “sensor response of single indicator after addition of antibiotic (FIG. 49)” value [2] was “decline in sensor response”.

For `CO/N=C(\C(=O)N[C@@H]1C(=O)N2C(C(=O)[O-])=C(C[N+]3(C)CCCC3)CS[C@H]12)c1csc(N)n1` [Cefepime], the “known to be resistant at concentrations below” value (from here on “known to be resistant”) [3] is listed as “below 64 ug/ml”, the “susceptibility or resistance by sensor response compared to control” value ([4]; Cefepime at 8 ug/ml) is listed as “susceptible” and the “susceptibility or resistance by sensor response compared to control” value ([5]; Cefepime at 8 ug/ml) is listed as “resistance”. For the same compound, the “known susceptibility information: concentration at which strain is susceptible” value [6] was less than 0.25 µg/mL, the “known susceptibility information: concentration below which strain is resistant” value [6] was “below 64 ug/ml” and the “known susceptibility information: concentration at which strain is susceptible” value [7] was less than 1 µg/mL.

`CO[C@@]1(NC(=O)Cc2cccs2)C(=O)N2C(C(=O)O)=C(COC(N)=O)CS[C@@H]21` [Cefoxitin] showed an MIC [8] of 1 µg/mL (≈ 2.34 µM).

Compound `C[C@@H](O)[C@H]1C(=O)N2C(C(=O)O)=C(S[C@@H]3CN[C@H](C(=O)Nc4cccc(C(=O)O)c4)C3)[C@H](C)[C@H]12` [Ertapenem] has an MIC [9] of 2 µg/mL (≈ 4.21 µM).

In the case of `C[C@@H](O)[C@H]1C(=O)N2C(C(=O)O)=C(S[C@@H]3CN[C@H](C(=O)N(C)C)C3)[C@H](C)[C@H]12` [Meropenem], the “known to be resistant” value [3] is listed as “below 16 ug/ml”, the “susceptibility or resistance by sensor response compared to control” value ([4]; Meropenem at 1 ug/ml) is listed as “susceptible” and the “susceptibility or resistance by sensor response compared to control” value ([5]; Meropenem at 1 ug/ml) is listed as “susceptibility”. For the same compound, the “known susceptibility information: concentration at which strain is susceptible” value [7] was less than 0.25 µg/mL.

For `Cc1onc(-c2ccccc2)c1C(=O)N[C@@H]1C(=O)N2[C@@H]1SC(C)(C)[C@@H]2C(=O)O` [Oxacillin], the “susceptibility or resistance by sensor response” value ([10]; Oxacillin at 2 ug/ml) was “resistance”, the “susceptibility or resistance by sensor response” value ([11]; Oxacillin at 2 ug/ml) was “resistance” and the “susceptibility or resistance by sensor response” value [12] was “susceptible”. The “known susceptibility information: susceptible or resistant” value [13] was “susceptible”, the “known susceptibility information: concentration below which strain is resistant” value [14] was “below 4 ug/ml” and the “known susceptibility information: concentration below which strain is resistant” value [15] was “below 4 ug/ml”.

For `CN[C@H](CC(C)C)C(=O)N[C@H]1C(=O)N[C@@H](CC(N)=O)C(=O)N[C@H]2C(=O)N[C@H]3C(=O)N[C@H](C(=O)N[C@H](C(=O)O)c4cc(O)cc(O)c4-c4cc3ccc4O)[C@H](O)c3ccc(c(Cl)c3)Oc3cc2cc(c3O[C@@H]2O[C@H](CO)[C@@H](O)[C@H](O)[C@H]2O[C@H]2C[C@](C)(N)[C@H](O)[C@H](C)O2)Oc2ccc(cc2Cl)[C@H]1O` [Vancomycin], the “susceptibility or resistance by sensor response” value ([10]; Vancomycin at 1-2 ug/ml) was “susceptibility”, the “susceptibility or resistance by sensor response” value ([11]; Vancomycin at 1-2 ug/ml) was “susceptibility” and the “susceptibility or resistance by sensor response” value [12] was “susceptible”. For the same compound, the “known susceptibility information: susceptible or resistant” value [13] was “susceptible”, the “known susceptibility information: susceptible or resistant” value [14] was “susceptible” and the “known susceptibility information: susceptible or resistant” value [15] was “susceptible”.

For piperacillin/tazobactam [PIP/Tazo], the “known to be resistant” value [3] is given as “below 128 ug/ml”, the “susceptibility or resistance by sensor response compared to control” value [4, 16] is given as “susceptible” and the “susceptibility or resistance by sensor response compared to control” value [5, 16] is given as “susceptibility”. For the same compound, the “known susceptibility information: concentration at which strain is susceptible” value [6] was 4 µg/mL and the “known susceptibility information: concentration at which strain is susceptible” value [7] was less than 4 µg/mL.
